# Measurements: US11027245B1, “Process for continuous dissolution of a solid in a reaction medium” (Evonik Operations GmbH, priority 2017, dated 2021)
# Experiment: Dissolution of phenothiazine fixed bed in acetic acid (UV absorption at 390 nm)
# Assay type: physicochemical
# Conditions: saturation concentration
# Source text: The dissolution of phenothiazine in acetic acid according to the process according to the invention was investigated by experiment. FIG. 2 illustrates the relevant experimental setup.
# A phenothiazine fixed bed is placed in a temperature-controllable chromatography column (Götec-Labor GmbH, Superformance 300-16, length 300 mm, internal diameter 16 mm, double-walled for thermostatting, 20 μm type F filter frit). Pump P-01 conveys acetic acid from the reservoir vessel through the fixed bed temperature-controlled to 20° C. into a waste vessel. Pump P-02 diverts a sample stream to the UV detector. The phenothiazine concentration is determined by absorption measurement at 390 nm. The detector is previously calibrated with a phenothiazine solution of known concentration.
# A first experiment was performed with a flow rate of 12.4 cm/min at a volume flow of 25.0 ml/min. […] The measured detector extinction (dashed) periodically deviates from the concentration at the bed outlet since to protect the measuring cell from solids particles the solution was not passed through the detector upon startup. In the further course of the experiment calibration solutions were passed through the detector as a control. The “corrected bed outlet concentration” (solid curve beginning at a concentration of 0.000) was calculated over the experimental duration via linear interpolation and extrapolation. […]
compound,measurement,setting,value
c1ccc2c(c1)Nc1ccccc1S2 [phenothiazine],Max conc (phenothiazine),"Experiment 1, fixed bed thermostatted 20.0 °C, flow rate 12.4 cm/min, volume flow 25.0 ml/min",1.23 % by wt.
same,Max conc (phenothiazine),"Experiment 2, fixed bed thermostatted 20.0 °C, flow rate 11.0 cm/min, volume flow 22.2 ml/min",1.22 % by wt.
